Data set [1] concerns HUVEC. The experiment in a line: Cell proliferation assay using crystal violet, HUVEC. The settings on record: Homo sapiens, n = 3, 48 h incubation, read-out: IC50 (nM) HUVEC (converted). Format: cell-based. How it is done: (§1) For quantification, cells are treated with crystal violet, a dye that stains proteins. After washing away of excess dye, the remaining crystal violet is dissolved in a sodium citrate solution. The solution is analyzed photometrically at 590 nm. The optical density of this solution depends on the concentration of crystal violet and therefore on the amount of cells. […] To reduce effects of evaporation, only the inner 60 wells of 96-well plates (coated with 0.1% gelatine solution for studies with HUVEC) were used for experiments.
(§2) Cells were seeded at a density of 5 000 cells per well in 100 μl growth medium (HUVEC) or 20 000 (HCT116), 15 000 (SW480 and 518A2) or 10 000 (HT29) cells per well in 200 μl growth medium in 55 wells per plate. 5 wells were filled with medium only. Additionally, a 96-well plate with cells in 12 wells and medium in 6 wells was prepared as T0-plate. The next day, additional 98 μl of growth medium were added in every well (only HUVEC).
(§3) Cells were treated with 2 μl of the working solution 24 h after seeding. Final compound concentrations in the well were 10 μM for the first round of screening. The final DMSO concentration was 0.5%. […] After finishing the addition of compounds, the T0-plate was stained with crystal violet for giving the cell density at time point zero. Before staining, the growth medium was poured away. Wells were filled with 50 μl crystal violet solution for 10 min. Then the staining solution was washed away with water. Since crystal violet is environmentally hazardous the waste was collected and disposed in an appropriate manner. After air drying of the plates the crystal violet on the cells was dissolved in 100 μl of sodium citrate solution, and the absorption was measured with a plate reader at 590 nm.
(§4) Mean values were corrected with the absorption of stained medium and the corrected absorption of T0 cells. Cell growth was calculated relative to DMSO control for data comparison.

The test system of data set [2] is HCT116 cell line. The experiment in a line: Cell proliferation assay using crystal violet, HCT116. The data set is classed as cell-based. The conditions noted are these: Homo sapiens, HCT-116, n = 3, 24 h incubation. As to the method: as §1, §2, §3, §4
Data set [3] has as its system colon cancer cell line SW480. The experiment in a line: Cell proliferation assay using crystal violet, SW480. Format: cell-based. The settings on record: Homo sapiens, n = 3, 24 h incubation. How it is done:
as §1, §2, §3
(§5) Mean values were corrected with the absorption of stained medium and the corrected absorption of T0 cells. Cell growth was calculated relative to DMSO control for data comparison. IC50 values (50% inhibition of cell growth) were determined with GraphPad Prism® (Version 4.03) using nonlinear regression (sigmoidal dose-response with variable slope).
(§6) Compounds showing an inhibition of proliferation of more than 50% at a concentration of 10 μM were defined as active, and their IC50-values were determined.

In data set [4] the test system is colon cancer cell line HT29. Nature of the data set: Cell proliferation assay using crystal violet, HT29. The conditions noted are these: Homo sapiens, HT-29, n = 3, 24 h incubation. The data set is classed as cell-based. How it is done: as §1, §2, §3
Mean values were corrected with the absorption of stained medium and the corrected absorption of T0 cells. Cell growth was calculated relative to DMSO control for data comparison. IC50 values (50% inhibition of cell growth) were determined with GraphPad Prism® (Version 4.03) using nonlinear regression (sigmoidal dose-response with variable slope). […]

Data set [5] deals with melanoma cell line 518A2. The experiment in a line: Cell proliferation assay using crystal violet, 518A2. The settings on record: Homo sapiens, 518A2; crystal violet assay; n = 3; 48 h incubation. Format: cell-based. How it is done:
as §1, §2, §3, §5, §6

Data set [6] has as its system healthy peripheral blood mononuclear cells (PBMC). Nature of the data set: Effect on healthy PBMC (CellTiter-Blue viability). The settings on record: 48 h incubation; one individual; FIG. 8. How it is done: FIG. 8: Effect of compounds 1 and 22 according to the invention as well as the control drugs fludarabine and cyclophosphamide on the viability of healthy peripheral blood mononuclear cells (PBMC) in suspension culture after 48 h incubation. Data points represent one individual calculated in relation to the control. Viability was measured using the CellTiter Blue assay (Promega, Madison, Wis., USA), and cells incubated in solvent only were used as control.
For quantification, cells were treated with resazurin (7-hydroxy-3H-phenoxazin-3-one 10-oxide) as indicator of cell viability. The method is based on the finding that living cells are able to reduce the non-fluorescent blue dye into the pink colored and highly red fluorescent resorufine. After adding the substrate the cells are incubated for 2 to 4 hours. Then, the solution is analyzed at 560 nm Ex/590 nm Em on a fluorometer. Appropriate cell density for seeding and duration of treatment with the substrate were determined in preliminary experiments.
First, cells were seeded in 96 well plates and then growth medium was added to each well to get a final volume of 80 μl. Compounds to be tested were diluted with medium from a 10 mM stock solution in DMSO to get different concentrations, and 20 μl of these solutions were added to the wells. The final DMSO concentration was 0.5%. All treatments and controls were performed in at least triplicates. Cells were incubated at 37° C. and 5% CO2 for 48 h. Then, 20 μl substrate solution was added to the wells, plates were incubated for 3 hours and analyzed.
The impact of the compounds according to the invention on healthy cells was assessed using peripheral blood mononuclear cells (PBMC). Cell viability was tested using the CellTiter-Blue Cell Viability Assay (Promega, Madison, Wis., USA) as described in Example 7.
Background: The colour change of resazurin is a common sign of viable cells or microbes.

For data set [7], the system named is CLL cell lines MEC-1 and MEC-2. The experiment in a line: Annexin V-FITC / propidium iodide staining, apoptosis in CLL cell lines. Format: cell-based. The settings on record: MEC-1 cells, 500 nM, 48 hours (FIG. 4b); called an outlier, not seen after 24 hours. How it is done:
Apoptosis was detected using propidium iodide/Annexin V FACS staining (Bender MedSystems).
Annexin V binds to phosphatidylserine which is exposed at the cell surface during execution of apoptosis. First, cells were seeded out at a density of 1.5 to 2.5 million cells per well in 12 well plates and then growth medium was added to each well to get a final volume of 2.5 ml. Compounds to be tested were diluted with medium from a 10 mM stock solution in DMSO to get different concentrations and cells were treated with 25 μl of these solutions. The final DMSO concentration was 0.5%. All treatments and controls were performed twice. Cells were incubated at 37° C. and 5% CO2 for 24 h and 48 h. Then, growth medium was removed by centrifugation, the supernatant discarded and 200 μl of an Annexin V solution were added. After 10 minutes in the dark, cells were washed once with Annexin buffer and the solution removed by centrifugation. The supernatant was discarded again and cells were suspended in 200 μl of a propidium iodide solution. Cells were measured by flow cytometry with a total of 10 000 events. Data were analyzed with CellQuest Pro™.
Compounds 1 and 22 were also tested on the CLL cell lines MEC-1 and MEC-2 in comparison with fludarabine and cyclophosphamide, two compounds used in the treatment of hematological malignancies (MEC-1 is a fludarabine-resistant cell line).

The subject of data set [8] is melanoma cell line 518A2. The settings on record: stated as comparison, no experiment described; read-out: IC50 value of cisplatin, comparison for melanoma cell line 518A2; cited from earlier work.

The structures appear in SMILES notation. Where two headings read alike, the source gives them in different places.

Consider `COc1cccc(/C=C/C=C/C(=O)c2ccccc2OC)c1`, for which the IC50 (commonly the midpoint of a concentration-inhibition curve) is 8810 nM in data set [1] and greater than 10000 nM in data set [2].
The corresponding values for `COc1ccc(C(=O)/C=C/c2ccc(OC)c3ccccc23)cc1OC` are greater than 10000 nM and greater than 10000 nM.
Regarding `COc1cc(C(=O)/C=C/C=C/c2ccccc2SC)cc(OC)c1OC`, the IC50 in data set [3] is 260 nM; in data set [4], 240 nM; in data set [5] it was 160 nM.
As to `Nc1nc(F)nc2c1ncn2[C@@H]1O[C@H](CO)[C@@H](O)[C@@H]1O` [fludarabine, reference compound], the “viability of healthy PBMC in suspension culture (toxicity)” value in data set [6] is recorded as “the most toxic of the tested compounds”.
`COc1cc(C(=O)/C=C/C=C/c2ccccc2Cl)cc(OC)c1OC`: the IC50 in data set [1] is 1770 nM.
The compound `COc1ccccc1C(=O)/C=C/c1ccc(OC)c2ccccc12` had an IC50 in data set [2] of 6850 nM.
Same read-out and setting: to `COc1cc(C(=O)/C=C/C=C/c2ccccc2)cc(OC)c1OC` belongs 4340 nM.
Regarding `COc1ccccc1/C=C/C=C/C(=O)c1ccc(Cl)c([N+](=O)[O-])c1`, the IC50 in data set [1] is 5630 nM.
Consider `COc1cccc(/C=C/C=C/C(=O)c2cc(OC)c(OC)c(OC)c2)c1`, for which the IC50 is 3210 nM in data set [1] and 4500 nM in data set [2].
Consider `COc1ccccc1/C=C/C=C/C(=O)c1cc(OC)c(O)c(OC)c1`, for which the IC50 in data set [3] was 2680 nM; in data set [4] it was 5790 nM; in data set [5], 2750 nM.
Consider `C=Cc1ccccc1/C=C/C=C/C(=O)c1ccccc1OC`, for which the IC50 in data set [1] was 760 nM; in data set [2], 804 nM.
`O=P1(N(CCCl)CCCl)NCCCO1` (stereo not drawn) [cyclophosphamide, reference compound] gave an apoptosis induction in data set [7] of 40%. Also, the “viability of healthy PBMC in suspension culture (toxicity)” value in data set [6] was “did not influence viability”.
Regarding `CCOc1ccccc1C(=O)/C=C/c1ccc(OC)c2ccccc12`, the IC50 in data set [3] and in data set [5] was greater than 10000 nM in each case.
As for `N.N.[Cl][Pt][Cl]` [cisplatin], the IC50 in data set [8] was roughly 10 µM.

The record behind these values is patent US20130123367A1, “VINYLOGOUS CHALCONE DERIVATIVES AND THEIR MEDICAL USE” (MEDIZINISCHE UNIVERSITAT WIEN, priority 2010, published 2013).
